Consider 40 compounds from publication PMC5706701, “Development of a homogenous high-throughput assay for inositol hexakisphosphate kinase 1 activity” (PLoS ONE, 2017).

Structures can show the parent of a compound that is named as a salt. Where two headings read alike, the source gives them in different places.

For the assay, the target named is T1, Human IP6K1 (Homo sapiens, UniProt Q92551).
T1 construct: GST (N, cleaved yes); made in house; host or cells: C43 E. coli, pGEX-6P-2
In words: IP6K1 high-throughput screen of the Sigma LOPAC (ADP-Glo Max, single point).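 Further: final compound concentration 10µM in 5% DMSO.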 The assay is classed as biochemical. (In ADP-Glo the light output rises with the ADP produced.)

[1] abbreviates: LOPAC single-point screen, ADP-Glo Max raw signal per well.
Setting [2] is: LOPAC single-point screen, Z-score against plate average and StDev.
[3] abbreviates: LOPAC single-point screen, ADP-Glo Max luminescence raw signal per well.
Setting [4] is: LOPAC single-point screen, Z-score relative to plate average and StDev.
Where [5] appears, read: LOPAC single-point screen, Z-score from raw signal with plate average and StDev.
[6] abbreviates: Sigma LOPAC single-point screen, ADP-Glo Max raw signal per well.
The mark [7] stands for this setting: Sigma LOPAC single-point screen, Z-score from plate average and StDev.

T1 sequence (Q92551 whole entry): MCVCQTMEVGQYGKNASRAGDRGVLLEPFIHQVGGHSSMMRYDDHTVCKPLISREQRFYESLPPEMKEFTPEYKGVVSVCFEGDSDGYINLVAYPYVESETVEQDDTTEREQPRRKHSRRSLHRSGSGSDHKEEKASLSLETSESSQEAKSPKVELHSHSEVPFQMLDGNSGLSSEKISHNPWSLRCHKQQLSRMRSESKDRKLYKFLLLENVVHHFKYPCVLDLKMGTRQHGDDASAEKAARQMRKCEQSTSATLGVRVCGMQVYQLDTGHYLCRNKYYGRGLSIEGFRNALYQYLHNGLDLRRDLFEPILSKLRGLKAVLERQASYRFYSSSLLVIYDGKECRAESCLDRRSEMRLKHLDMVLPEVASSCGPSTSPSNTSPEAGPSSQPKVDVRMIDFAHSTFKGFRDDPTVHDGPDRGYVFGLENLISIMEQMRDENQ

For the compound `Cc1nc2sccn2c(=O)c1CCN1CCC(=C(c2ccc(F)cc2)c2ccc(F)cc2)CC1` [Ritanserin], the “Raw Signal” value under setting [1] is on record as 56847. The compound also registered a Z-score under setting [2] of 0.1599.

`NC(CO)(CO)CO.O=C(c1ccccc1)c1ccc2n1CCC2C(=O)O` (centres unmarked) [Ketorolac tris salt]: the “Raw Signal” value under setting [3] is 48098. Moreover, the Z-score under setting [4] was -1.058.

For the compound `COc1ccccc1OCC(O)CN1CCN(CC(=O)Nc2c(C)cccc2C)CC1` (centres unmarked) [Ranolazine dihydrochloride], the “Raw Signal” value under setting [1] was 54866. Under setting [5], this compound came in with a Z-score of -0.2249.

For `CC(C)[C@@H]1NC(=O)[C@H](CCCCN)NC(=O)[C@@H](Cc2c[nH]c3ccccc23)NC(=O)[C@H](Cc2ccc(O)cc2)NC(=O)[C@H](C)N(C)C(=O)[C@H](Cc2ccccc2)NC1=O` [Seglitide], the “Raw Signal” value under setting [1] is recorded as 55030. This compound had a Z-score under setting [5] of -0.1931.

Regarding 5-Bromo-2 -deoxyuridine, the “Raw Signal” value worked out at 57175 and the Z-score is -0.13.

Regarding `C[N+]1(C)CCN(c2ccccc2)CC1.[I-]`, the “Raw Signal” value under setting [1] was 55993. Under setting [2], this compound had a Z-score of 0.1677.

In the case of `NCCCP(=O)(O)O` [3-Aminopropylphosphonic acid], the “Raw Signal” value under setting [1] amounted to 56234. The Z-score under setting [5] was -0.2957.

Regarding `COc1cc2nc(N3CCN(C(=O)C4COc5ccccc5O4)CC3)nc(N)c2cc1OC` (centres unmarked) [Doxazosin mesylate], under setting [6], the “Raw Signal” value came out at 57817. The compound also displayed a Z-score under setting [7] of 0.5382.

Take `Oc1ccc2c3c1O[C@H]1c4oc5ccccc5c4C[C@@]4(O)[C@@H](C2)N(CC2CC2)CC[C@]314` [Naltriben methanesulfonate]: the “Raw Signal” value under setting [1] was 55337. Also, the Z-score under setting [2] is reported as 0.1585.

Regarding `Nc1ccncc1` [4-Aminopyridine], the “Raw Signal” value under setting [1] came out at 56638. In addition, the Z-score under setting [5] was -0.2246.

`CC(C)Cn1c(=O)n(C)c(=O)c2[nH]cnc21` [3-Isobutyl-1-methylxanthine]: the “Raw Signal” value under setting [6] was found to be 62159. The compound further gave a Z-score under setting [7] of 1.305.

For the compound `CS(=O)(=O)O.Cc1c(C(=O)c2cccc3ccccc23)c2cccc3c2n1[C@H](CN1CCOCC1)CO3` [(R)-(+)-WIN 55,212-2 mesylate], under setting [6], the “Raw Signal” value is 62593. For the same compound, the Z-score under setting [7] was determined as 1.276.

With `NS(=O)(=O)c1cc2c(cc1Cl)NCNS2(=O)=O` [Hydrochlorothiazide], under setting [1], the “Raw Signal” value is given as 56632. In addition, under setting [2], the Z-score came out at 0.2975.

Turning to `CC(C)COC(=O)OCN1C(=O)CN(CCN2CC(=O)N(COC(=O)OCC(C)C)C(=O)C2)CC1=O` [Sobuzoxane], the “Raw Signal” value under setting [1] was 54088. The compound also registered a Z-score under setting [5] of -0.3761.

In the case of `COc1ccc(CN(CCN(C)C)c2ccccn2)cc1` [Pyrilamine maleate], the “Raw Signal” value under setting [6] was determined as 60252. Besides, the Z-score under setting [7] is on record as 0.9844.

With `N[C@@H]1C[C@H]1c1ccccc1` [Tranylcypromine hydrochloride], the “Raw Signal” value under setting [1] is on record as 55566. Further, under setting [2], the Z-score is -0.08894.

On to `O=C(c1cc(O)c(O)c([N+](=O)[O-])c1)c1ccccc1F` [Ro 41-0960], for which, under setting [6], the “Raw Signal” value is 58523. Under setting [7], this compound came in with a Z-score of 0.4855.

In the case of `CC[N+](C)(C)Cc1ccccc1Br` [Bretylium tosylate], the “Raw Signal” value under setting [1] is 56921. The compound also displayed a Z-score under setting [5] of -0.1747.

In the case of `CC(C)(CO)Cc1cc(C(C)(C)C)c(O)c(C(C)(C)C)c1` [CGP-7930], the “Raw Signal” value under setting [6] came to 64858. For the same compound, the Z-score under setting [7] was found to be 1.223.

With `C#CCN(C)[C@H](C)Cc1ccccc1.Cl` [R-(-)-Deprenyl hydrochloride], the “Raw Signal” value under setting [1] was 53619. The compound also returned a Z-score under setting [5] of -0.1301.

In the case of `CNCCNS(=O)(=O)c1cccc2cnccc12.Cl.Cl` [H-8 dihydrochloride], the “Raw Signal” value under setting [1] was 53425. The compound also yielded a Z-score under setting [5] of -0.1627.

For `COc1cccc(OC)c1OCCNCC1COc2ccccc2O1.Cl` (centres unmarked) [WB-4101 hydrochloride], under setting [6], the “Raw Signal” value is recorded as 58268. In addition, under setting [7], the Z-score was 0.6298.

Take `CC(C)(C)NCC(O)c1cc(O)cc(O)c1.CC(C)(C)NCC(O)c1cc(O)cc(O)c1.O=S(=O)(O)O` (centres unmarked) [Terbutaline hemisulfate]: the “Raw Signal” value under setting [6] turned out to be 59192. This compound also registered a Z-score under setting [7] of 0.6155.

As for `C[C@]12CC[C@H](O)CC1=CC[C@@H]1[C@@H]2CC[C@]2(C)C(=O)CC[C@@H]12` [trans-Dehydroandrosterone], the “Raw Signal” value under setting [1] is 53982. This compound came in with a Z-score under setting [5] of -0.2407.

For the compound `Cl.Cl.NCCNS(=O)(=O)c1cccc2cnccc12` [H-9 dihydrochloride], the “Raw Signal” value under setting [6] stood at 64375. Under setting [7], this compound showed a Z-score of 1.138.

As for `O=C(O)c1nn(Cc2ccc(Cl)cc2Cl)c2ccccc12` [Lonidamine], the “Raw Signal” value under setting [1] came to 56276. This compound also showed a Z-score under setting [2] of 0.3163.

In the case of `O=c1[nH]c2ccccc2n1C1CCN(CCCC(c2ccc(F)cc2)c2ccc(F)cc2)CC1` [Pimozide], the “Raw Signal” value under setting [1] is on record as 53926. Besides, the Z-score under setting [2] was -0.07855.

Take `Nc1cc(N2CCCCC2)nc(N)[n+]1[O-]` [Minoxidil]: the “Raw Signal” value under setting [1] was found to be 52091. Under setting [5], this compound yielded a Z-score of -0.3869.

As to `CCn1ccnc1CC1COc2ccccc2O1` (centres unmarked) [Imiloxan hydrochloride], under setting [1], the “Raw Signal” value is 52626. In addition, the Z-score under setting [5] is -0.297.

`CCC1(C2=NCCN2)Cc2ccccc2O1` (centres unmarked) [Efaroxan hydrochloride]: the “Raw Signal” value under setting [1] worked out at 53966. This compound also had a Z-score under setting [5] of -0.2439.

Turning to `COc1cc(/C=C(\C#N)C(=O)c2ccc(O)c(O)c2)cc(I)c1O` [I-OMe-Tyrphostin AG 538], the “Raw Signal” value under setting [1] stood at 53763. Under setting [5], this compound had a Z-score of -0.4392.

Consider `CNCCCN1c2ccccc2CCc2ccccc21` [Desipramine hydrochloride], for which the “Raw Signal” value under setting [3] turned out to be 49945. In addition, the Z-score under setting [4] is -1.061.

As for `CC(C)(C)c1cc(C=C(C#N)C#N)cc(C(C)(C)C)c1O` [Tyrphostin A9], the “Raw Signal” value under setting [1] is given as 55633. The same compound had a Z-score under setting [2] of -0.07593.

For `CCCCC[C@H](CC(=O)NO)C(=O)N[C@H](C(=O)N1CCC[C@H]1CO)C(C)C` [Actinonin], under setting [6], the “Raw Signal” value is on record as 64769. Under setting [7], this compound yielded a Z-score of 1.208.

For `Cl.O=C(OC1CCN(CCCl)CC1)C(c1ccccc1)c1ccccc1`, the “Raw Signal” value under setting [1] came to 54369. Also, the Z-score under setting [5] is given as -0.1621.

On to `CNCCCC12CCC(c3ccccc31)c1ccccc12` [Maprotiline hydrochloride], for which, under setting [1], the “Raw Signal” value is recorded as 54786. Moreover, the Z-score under setting [2] was found to be 0.06595.

As to `CCc1cc(Cl)c(O)c(C(=O)NC[C@@H]2CCCN2CC)c1OC.Cl` [S-(-)-Eticlopride hydrochloride], the “Raw Signal” value under setting [3] was 63565. Where the note is “LOPAC single-point screen, Z-score from plate average and StDev”, the Z-score is 1.706.

For `O=C1C(SCCO)=C(SCCO)C(=O)c2ccccc21` [NSC 95397], under setting [1], the “Raw Signal” value was 55516. The Z-score under setting [2] is 0.07087.

Consider `CCC1(c2ccc(N)cc2)CCC(=O)NC1=O` (racemic) [(±)-p-Aminoglutethimide], for which the “Raw Signal” value under setting [1] stood at 58613. Under setting [2], this compound returned a Z-score of 0.1233.

Regarding `CCCn1c(=O)c2[nH]c(-c3ccc(OCC(=O)NCCN)cc3)nc2n(CCC)c1=O` [Xanthine amine congener], under setting [6], the “Raw Signal” value is 61437. The Z-score under setting [7] came to 1.052.
